Values of other authors, collected in US7718595B2, “Light duty liquid cleaning compositions and methods of manufacture and use thereof comprising organic acids” (priority 2008, dated 2010).

Tests used:
[1] = list category
[2] = not given; remark: listed apart in the source

Row | Molecule | EPA Inert List [1] | pKa | solubility in water [2]
1 | CCO [Ethanol] | 4B | – | –
2 | CC(O)C(=O)O (centres unmarked) [Lactic acid] | 4B | about 3.8 | –
3 | CCCCCCCCCCCC(=O)NCCC[N+](C)(C)CC(=O)[O-] [Laurylamidopropyl Betaine] | 3 | – | –
4 | O=S(=O)([O-])[O-].[Mg+2] [Mg2SO4] | 4A | – | –
5 | O=C([O-])CN(CCN(CC(=O)[O-])CC(=O)[O-])CC(=O)[O-].[Na+].[Na+].[Na+].[Na+] [Na4EDTA] | 4B | – | –
6 | O=P(O)(O)OP(=O)(O)OP(=O)(O)O [Sodium tripolyphosphate] | – | – | about 14 wt-%
7 | sodium xylene sulfonate [SXS] | 3 | – | –
